Data: US8563254B2, “Biomarkers of tumor pharmacodynamic response” (Novartis AG, priority 2009, dated 2013)

How the values were obtained:
tumor-bearing mice = experiment: Serum IL-8 in tumor-bearing mice, summary of both models; type: in vivo; conditions: single dose
Procedure: The in vivo study was carried out in strict accordance with Swiss law for animal protection and was approved by the Swiss Cantonal Veterinary Office of Basel-Stadt. GTL-16 (4×10^6) and A375 cells (5×10^6) were inoculated subcutaneously in the right flank in 200 μl Hanks' balanced salt solution (HBSS) or PBS, respectively. Invasive procedures were performed under Forene anesthesia. All experiments were performed in female Harlan HsdNpa: Athymic Nude-nu mice (Laboratory Animal Services, Novartis Pharma AG, Basel). The animals were kept under optimized hygienic conditions with 12 hr dark, 12 hr light conditions. The animals were fed food and water ad libitum. A single 75 mg/kg and 50 mg/kg dose of Hsp90 inhibitor, NVP-AUY922 was administered to the GTL-16 and A375 tumor-bearing mice, when tumors had reached a mean volume of 200 mm^3-500 mm^3 in size. Mice in the control group were injected with the vehicle (D5W). […]
Human IL-8 levels in cell culture supernatants treated with NVP-AUY922 were initially assessed as part of a multiplexed bead-based cytokine panel (hu 27-plex panel I, Bio-rad Laboratories, Hercules, Calif., USA) with a BioPlex Suspension Array System (Bio-rad). Human IL-8 and mouse KC levels in serum derived from GTL-16 and A375 tumor-bearing mice treated with NVP-AUY922 were measured by single-plex cytokine bead-based assay (Milliplex, Millipore, Billerica, Mass., USA). […]

GTL-16 cells [1] = experiment: Multiplexed bead-based 27-plex cytokine panel, GTL-16 culture supernatants; type: cell-based, human; conditions: 48 hr
Procedure: A malignant melanoma cell line A375 (American Type Culture Collection, Manassas, Va., USA) and gastric cancer cell line, GTL-16 (Prof Silvia Giordano, Institute for Cancer Research and Treatment, Turin, Italy) were cultured in RPMI 1640 supplemented with 10% FBS and 1% penicillin-streptomycin at 37° C. in 5% CO2 (GIBCO reagents, Invitrogen Corporation, Carlsbad, Calif., USA). Cell numbers were determined by ViCell™ XR Cell Viability Analyzer 2.03 (Beckman Coulter, Inc., Fullerton, Calif., USA). Cells were seeded in poly-D-lysine coated plates (BIOCOAT Cell Environments, Becton Dickinson Biosciences, San Jose, Calif., USA).
Human IL-8 levels in cell culture supernatants treated with NVP-AUY922 were initially assessed as part of a multiplexed bead-based cytokine panel (hu 27-plex panel I, Bio-rad Laboratories, Hercules, Calif., USA) with a BioPlex Suspension Array System (Bio-rad). Human IL-8 and mouse KC levels in serum derived from GTL-16 and A375 tumor-bearing mice treated with NVP-AUY922 were measured by single-plex cytokine bead-based assay (Milliplex, Millipore, Billerica, Mass., USA). The BioPlex system uses a liquid suspension array of beads. The beads align in a single file through a flow cell to the detector, where a red classification laser at a wavelength of 635 nm and a green reporter laser at a wavelength of 532 nm are used to identify each bead's spectral address and associated reporter signal, respectively.
In a screen for candidate secreted markers of Hsp90 inhibition, cell culture supernatants were collected from GTL-16 gastric carcinoma and A375 melanoma cells that were washed and treated for 48 hr with 1 μM NVP-AUY922 in fresh culture medium. These samples were analyzed by a multiplexed cytokine bead-based assay that included a panel of 27 human cytokines, the results of which are shown in FIG. 1. […] In addition to this empirical investigation using the bead-based immunoassay panel, in silica data mining was undertaken to identify secreted proteins that were regulated by previously reported Hsp90 client proteins; this investigation pointed to a number of candidates, including IL-8, consistent with the empirical results.

A375 cells = experiment: Quantitative RT-PCR of IL-8 mRNA, A375; type: cell-based, human; conditions: A375, 0.3 μM, 16 hr
Procedure: Total cellular RNA was extracted from the GTL-16 and A375 cell lines using RNeasy mini kit (Qiagen, Inc., Valencia, Calif., USA). Total RNA quantitation was carried out using a RiboGreen assay (Invitrogen Corporation, Carlsbad, Calif., USA). 1 μg of total RNA was reverse transcribed using AMV reverse transcriptase (Reverse Transcription Kit, Promega U.S., Madison, Wis., USA). A 20 μl reaction cocktail was prepared as follows; 1 μg total RNA in 10 μl of RNase, DNase-free H2O, 4 μl of 25 mM MgCl2, 2 μl of 10× reverse transcriptase buffer, 2 μl of 10 mM dNTP's, 1 μl of 500 μg ml^−1 random hexamers, 1.5 μl of 10 μl ml^−1, and 40 U μl^−1 0.5 μl of recombinant RNase Inhibitor. Real time PCR was performed using a 7900HT fast real-time PCR system (Applied Biosystems, Foster City, Calif., USA) using the Power SYBR Green PCR master mix (Applied Biosystems). The primers for IL-8 and GAPDH were: IL-8 sense: 5′-[…]-3′ (SEQ ID NO:3) and IL-8 antisense:
5′-[…]-3′ (SEQ ID NO:4); and GAPDH sense:
5′-[…]-3′ (SEQ ID NO:5), and GAPDH antisense;
5′-[…]-3′. (SEQ ID NO:6) The amplification process involved an initial 5 min denaturing step at 95° C. This was followed by annealing reactions for both IL-8 and GAPDH, of 45 s at 95° C. with 230 s at 68° C. for 34 cycles and 1 min at 95° C. with 1 min at 60° C. and 1 min 72° C. for 30 cycles, respectively. The final extension was 10 min at 72° C. […]

GTL-16 cells [2] = experiment: Cell viability by CellTiter-Glo, GTL-16; type: cell-based, human; conditions: GTL-16, 0.3 μM, 72 hr treatment time
Procedure: Cell Viability was measured by CellTiter-Glo assay (Promega U.S., Madison, Wis., USA). GTL-16 and A375 cells were grown in 6-well poly-D-lysine coated plates (BD Biosciences). Cells were treated with NVP-AUY922. Cell viability was measured 16, 24, 48 and 72 hr post-treatment with Hsp90 inhibitor. Briefly supernatants were removed and cells were washed with 3 ml of PBS, pH 7.4. 1 ml of a two component CellTiter-Glo reagent was added to each well and the plates were shaken vigorously for 2 min, followed by 10 min incubation at room temperature in the dark. Luminescent signal intensity was recorded with an integration time set between 0.25 and 1 s/well.

For `CCNC(=O)c1noc(-c2cc(C(C)C)c(O)cc2O)c1-c1ccc(CN2CCOCC2)cc1` [NVP-AUY922, 5-(2,4-Dihydroxy-5-isopropyl-phenyl)-4-(4-morhpolin-4-ylmethyl-phenyl)-isoxazole-3-carboxylic acid ethylamide], the “transient decrease in serum IL-8 levels” value (tumor-bearing mice) was 40-70%, the “accumulation of FGF basic and MIP-1b” value (GTL-16 cells [1]; GTL-16, 1 μM) was “virtually unchanged” and the “accumulation of IL-1ra, IL-8, IL-17, Eotaxin, GM-CSF, IP-10, PDGF-bb and VEGF” value (GTL-16 cells [1]; GTL-16, 1 μM) was “decreased accumulation”. The “accumulation of IL-15” value (GTL-16 cells [1]; GTL-16, 1 μM) was “increased accumulation”, the IL-8 accumulation decreased (GTL-16 cells [1]; GTL-16 culture supernatant, 1 μM, multiplexed assay) was “more than 80%” and the “IL-8 mRNA levels lower in treated versus untreated cells” value (A375 cells) was 95%. The “cell viability over time” value (GTL-16 cells [2]) was “steadily declines”.
